Assay [1] concerns the target human Maxi K channel (BK channel), KCNMA1 (KCa1.1) and beta1 (KCNMB1) subunits (Homo sapiens, UniProt Q12791).
Protocol: In Vitro Assay: Agonistic Activity at the Human Maxi K Channel (BK Channel)
A CHO K1 cell line was stably transfected with the KCNMA1 (KCa1.1, U11058) and beta1 (KCNMB1) subunits of the human Maxi K channel (Ponte et al, Molecular Pharmacology 2012, 81(4), 567-577).
Cells were seeded in microtiter plates (black 384-well MTP, clear bottom) in a concentration of 10,000 cells/well in 25 μl medium and cultured for 20 to 24 hours at 37° C. and 5% CO2. The cell medium was removed, and the cells washed with Tyrode's solution. 25 μl of FMP-dye Blue-Tyrode's was added to each well and incubated at room temperature for 30 min.
(§1) For the membrane potential measurements, the prepared cell plate and substance plate were placed in the FLIPR Tetra (Molecular Devices). The baseline measurement of the fluorescence was stared for 20 sec (Exc. 510-545 nm, Emm. 565-625 nm). The cells were depolarized by addition of 25 μl of the diluted test compounds (final assay concentration of the KCl-Tyrode: 70 mM KCl, 2 mM CaCl2, 1 mM MgCl2, 0.8 mM NaH2PO4, 5 mM Glucose, 28 mM Hepes, pH 7.4, including the voltage sensitive dye). The complete measurement takes 150 s.
(§2) EC50 values were determined in triplicate utilizing compound dilution series. The data were determined at least in two independent tests. The data were proceeded by using the ActivityBase XE Runner software (IDBS) for curve fitting and calculation of the half-maximal effective concentration.
The test system of a further assay is larvae L4 of D. immitis. In words: In vitro assay: Dirofilaria immitis L4 motility. As to conditions: 72 h, read-out: EC50 value, Dirofilaria immitis L4, 10 L4 larvae, 3 days incubation, reduction in motility vs DMSO, duplicates. Format: cell-based.
In assay [2] the target is Caenorhabditis elegans slo-1a (Caenorhabditis elegans, UniProt Q95V25).
Protocol: In Vitro Assay: Agonistic Activity at C. elegans Slo-1a
A CHO K1 cell line stably transfected with the Caenorhabditis elegans slo-1a (accession no Y51A2D.19a) was established. Cells were seeded in microtiter plates (black 384-well MTP, clear bottom) in a concentration of 10,000 cells/well in 25 μl medium and cultured for 20 to 24 hours at 37° C. and 5% CO2. The cell medium was removed, and the cells washed with Tyrode's solution. 25 μl of FMP-dye Blue-Tyrode's was added to each well and incubated at room temperature for 30 min.
as §1, §2
The subject of assay [3] is Oesophagostomum dentatum (nodular worm of swine), larval stage 4. In words: In vitro assay: Oesophagostomum dentatum L4 larvae, minimum effective concentration. Particulars: in Sus scrofa, read-out: MEC (minimum effective concentration) against Oesophagostomum dentatum L4, L4 larvae, 20 per well, microscopic examination, concentration at which at least one larva shows mortality, change in motility or development.
Description: (§3) In Vitro Assay: Ascaridia galli and Oesophagostomum dentatum
(§4) Ascaridia galli (intestinal roundworm of chicken), larval stage 3 (“L3”); and Oesophagostomum dentatum (nodular worm of swine), larval stages 3 and 4 (respectively “L3” and “L4”) where suspended in a nutrient medium and distributed to 96 well plates with 20 larvae per well. The wells were spiked with DMSO solutions of the compounds with declining concentration.

Assay [4] deals with Oesophagostomum dentatum (nodular worm of swine), larval stage 3. Put plainly: In vitro assay: Oesophagostomum dentatum L3 larvae, minimum effective concentration. As to conditions: in Sus scrofa, read-out: MEC (minimum effective concentration) against Oesophagostomum dentatum L3, L3 larvae, 20 per well, microscopic examination, concentration at which at least one larva shows mortality, change in motility or development.
Description: as §3, §4

The test system of another assay is D. immitis microfilaria. Put plainly: In vitro assay: Dirofilaria immitis L1 (microfilaria) motility. Format: cell-based. As to conditions: 72 h, read-out: EC50 value, Dirofilaria immitis L1, approximately 500 microfilaria, 3 days incubation, reduction in motility vs DMSO, duplicates.
The test system of a further assay is A. viteae microfilaria. Put plainly: In vitro assay: Acanthocheilonema viteae L1 (microfilaria) motility. As to conditions: 72 h, read-out: EC50 value, Acanthocheilonema viteae L1, approximately 500 microfilaria, 3 days incubation, reduction in motility vs DMSO, duplicates.

Each structure is given as a SMILES string.

Sequence of human Maxi K channel (BK channel), KCNMA1 (KCa1.1) and beta1 (KCNMB1) subunits (Q12791 1-1178 isoform Q12791-5): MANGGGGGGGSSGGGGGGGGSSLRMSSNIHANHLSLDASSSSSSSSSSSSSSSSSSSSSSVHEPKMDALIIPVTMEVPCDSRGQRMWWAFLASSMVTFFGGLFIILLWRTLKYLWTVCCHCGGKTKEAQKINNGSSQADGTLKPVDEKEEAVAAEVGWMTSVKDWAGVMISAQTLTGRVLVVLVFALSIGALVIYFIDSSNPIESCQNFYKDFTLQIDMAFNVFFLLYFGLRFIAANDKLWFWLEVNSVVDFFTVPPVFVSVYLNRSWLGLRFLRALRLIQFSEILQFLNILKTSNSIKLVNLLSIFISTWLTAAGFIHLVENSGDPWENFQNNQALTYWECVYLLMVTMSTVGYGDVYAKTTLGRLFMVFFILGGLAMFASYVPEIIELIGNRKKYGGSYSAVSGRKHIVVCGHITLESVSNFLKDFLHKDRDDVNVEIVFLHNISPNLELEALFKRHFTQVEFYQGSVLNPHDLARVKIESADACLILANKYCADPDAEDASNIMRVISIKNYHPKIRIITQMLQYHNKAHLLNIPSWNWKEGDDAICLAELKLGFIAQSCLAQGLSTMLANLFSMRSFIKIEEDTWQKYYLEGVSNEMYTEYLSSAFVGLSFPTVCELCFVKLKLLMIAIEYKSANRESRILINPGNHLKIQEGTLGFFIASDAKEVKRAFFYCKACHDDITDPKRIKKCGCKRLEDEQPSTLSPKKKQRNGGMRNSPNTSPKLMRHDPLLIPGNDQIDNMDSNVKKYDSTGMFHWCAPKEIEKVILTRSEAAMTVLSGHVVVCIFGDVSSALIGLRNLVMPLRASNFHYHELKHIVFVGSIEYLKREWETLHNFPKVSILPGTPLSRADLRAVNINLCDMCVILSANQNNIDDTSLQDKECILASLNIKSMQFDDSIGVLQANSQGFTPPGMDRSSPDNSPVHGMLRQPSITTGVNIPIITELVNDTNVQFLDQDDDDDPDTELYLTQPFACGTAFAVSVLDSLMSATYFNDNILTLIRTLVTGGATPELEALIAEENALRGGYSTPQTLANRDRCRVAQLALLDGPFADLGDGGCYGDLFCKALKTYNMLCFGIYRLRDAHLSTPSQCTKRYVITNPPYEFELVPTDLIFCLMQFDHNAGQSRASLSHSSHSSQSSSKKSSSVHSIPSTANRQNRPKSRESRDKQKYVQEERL
Sequence of human Maxi K channel (BK channel), KCNMA1 (KCa1.1) and beta1 (KCNMB1) subunits (Q16558 whole entry partner): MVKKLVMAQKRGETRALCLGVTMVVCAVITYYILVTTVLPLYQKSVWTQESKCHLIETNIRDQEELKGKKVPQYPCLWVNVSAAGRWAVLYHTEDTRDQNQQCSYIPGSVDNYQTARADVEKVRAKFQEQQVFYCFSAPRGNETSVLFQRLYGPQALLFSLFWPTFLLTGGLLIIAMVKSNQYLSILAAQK
Sequence of Caenorhabditis elegans slo-1a (Q95V25 whole entry): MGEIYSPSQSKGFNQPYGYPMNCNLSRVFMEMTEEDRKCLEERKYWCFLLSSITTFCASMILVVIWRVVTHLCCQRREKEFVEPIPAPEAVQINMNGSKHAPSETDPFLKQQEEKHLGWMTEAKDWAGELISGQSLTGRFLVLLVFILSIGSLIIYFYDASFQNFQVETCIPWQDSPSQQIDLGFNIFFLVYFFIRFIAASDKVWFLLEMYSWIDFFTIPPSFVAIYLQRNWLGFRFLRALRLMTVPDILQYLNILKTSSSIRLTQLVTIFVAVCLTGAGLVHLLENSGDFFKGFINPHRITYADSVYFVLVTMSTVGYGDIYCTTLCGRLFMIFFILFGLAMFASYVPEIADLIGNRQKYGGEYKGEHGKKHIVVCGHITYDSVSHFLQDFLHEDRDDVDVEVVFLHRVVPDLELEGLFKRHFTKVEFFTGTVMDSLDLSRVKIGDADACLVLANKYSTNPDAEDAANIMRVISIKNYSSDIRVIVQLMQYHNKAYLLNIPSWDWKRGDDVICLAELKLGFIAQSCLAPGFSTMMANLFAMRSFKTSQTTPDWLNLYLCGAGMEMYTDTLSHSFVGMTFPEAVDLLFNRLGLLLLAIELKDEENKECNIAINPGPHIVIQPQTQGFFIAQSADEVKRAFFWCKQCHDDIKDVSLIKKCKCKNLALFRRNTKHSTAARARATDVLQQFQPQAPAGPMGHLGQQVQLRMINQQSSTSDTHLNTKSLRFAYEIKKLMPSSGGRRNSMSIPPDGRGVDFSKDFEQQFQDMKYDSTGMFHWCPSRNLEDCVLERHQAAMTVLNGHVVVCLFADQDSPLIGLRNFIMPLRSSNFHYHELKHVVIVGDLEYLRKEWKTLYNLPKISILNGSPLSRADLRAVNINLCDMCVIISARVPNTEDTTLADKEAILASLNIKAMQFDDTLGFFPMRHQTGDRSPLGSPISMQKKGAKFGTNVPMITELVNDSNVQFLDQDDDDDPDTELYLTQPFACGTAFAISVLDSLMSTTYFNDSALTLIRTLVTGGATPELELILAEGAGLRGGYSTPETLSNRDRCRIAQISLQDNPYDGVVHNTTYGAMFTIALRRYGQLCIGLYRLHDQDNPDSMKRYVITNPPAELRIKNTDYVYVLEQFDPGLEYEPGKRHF
Protocol for A. viteae microfilaria: In Vitro Assay: Acanthocheilonema viteae L1
Approximately 500 A. viteae microfilaria were added to a microtiter plate containing a nutrient medium and the test compound in DMSO at varying concentrations. After incubation for 3 days, activity was evaluated as reduction in motility as compared to DMSO as negative control. Compounds were tested in duplicates. Based on the concentration response curves EC50 values were calculated.

In general, EC50 refers to the concentration giving half of the maximal effect. Take `O=C(NC1CCOc2ccccc21)c1cnc2c(ccn2-c2cccc(Cl)c2Cl)c1N1CCOCC1` (centres unmarked) [Compound 8]: the EC50 is above 30 µM in assay [1], below 1 µM with larvae L4 of D. immitis and below 1 µM in assay [2].

In the case of `O=C(N[C@H]1CCc2ccccc21)c1cnc2c(ccn2-c2cc(Cl)cc(Cl)c2)c1N1CCOCC1` [Compound 37], the minimal effective concentration in assay [3] and in assay [4] was at most 50 µM each time. Besides, the EC50 with D. immitis microfilaria was below 10 µM; with A. viteae microfilaria, below 10 µM; in assay [1] it was above 30 µM.
